What was measured:
hER-α = molecular target: T1, hER-α (Homo sapiens, UniProt P03372); test: In vitro binding affinity to the estrogen receptor-α, displacement assay with 0.5 nM 3H-estradiol; conditions: hER-α recombinant, insect Sf cells, 0.5 nM 3H-estradiol radioligand, tested 0.03-10.0 nM; for IC50: read-out: ERα-aff IC50; for Ki: read-out: ERα-aff Ki
T1 construct: purchased MDS PharmaServices (contract assay); host or cells: insect Sf cells
T1 sequence (P03372 1-595): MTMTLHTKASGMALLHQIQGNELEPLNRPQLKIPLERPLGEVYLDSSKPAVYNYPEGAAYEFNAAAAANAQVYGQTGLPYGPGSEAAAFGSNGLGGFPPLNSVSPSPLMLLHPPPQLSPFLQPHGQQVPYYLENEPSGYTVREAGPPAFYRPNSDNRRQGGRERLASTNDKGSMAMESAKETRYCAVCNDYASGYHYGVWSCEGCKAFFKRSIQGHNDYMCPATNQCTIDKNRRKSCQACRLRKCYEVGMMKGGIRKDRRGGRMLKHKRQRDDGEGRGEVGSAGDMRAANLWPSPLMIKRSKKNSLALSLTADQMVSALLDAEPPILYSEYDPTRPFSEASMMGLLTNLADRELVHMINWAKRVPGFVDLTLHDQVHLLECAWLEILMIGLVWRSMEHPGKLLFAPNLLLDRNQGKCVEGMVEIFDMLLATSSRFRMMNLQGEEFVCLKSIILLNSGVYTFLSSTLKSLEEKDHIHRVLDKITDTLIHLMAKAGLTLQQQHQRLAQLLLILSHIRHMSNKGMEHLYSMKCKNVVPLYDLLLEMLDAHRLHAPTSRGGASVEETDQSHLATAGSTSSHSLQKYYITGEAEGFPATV
Description: In Vitro Binding Affinty to the Estrogen Receptor-α (MDS PharmaServices)
Binding affinity was determined in a displacement assay using hER-α (recombinant, insect Sf cells) with 0.5 nM ^3H-estradiol as radioligand. The compounds were tested in concentrations from 0.03-10.0 nM. Results are given as IC50 and Ki.

[1] = system: ICR derived immature female mice; test: In vivo estrogenic antagonism, estradiol-benzoate challenge, uterine wet weight; parameters: unit: %; conditions: 10 mg/kg s.c., three consecutive days, estradiol-benzoate 3 μg/kg s.c. challenge, uterus wet weight 24 h after final dose
Description: In Vivo Estrogenic Antagonism (MDS PharmaServices)
Compounds were administered s.c. (10 mg/kg) for three consecutive days to a group of 5 ICR derived immature female mice weighing approx. 13 g and challenged with estradiol-benzoate (3 μg/kg s.c.) immediately after each daily dosing. The animals were sacrificed 24 h after the final dose and wet weight of the uterus was measured. A 50% or greater reduction in the estradiol-induced increase in uterine weight indicates possible estrogen antagonist activity.

[2] = system: ICR derived immature female mice; test: In vivo estrogenic agonism, uterine wet weight; conditions: 10 mg/kg s.c., three consecutive days, uterus wet weight 24 h after final dose
Description: In Vivo Estrogenic Agonism (MDS PharmaServices)
Compounds were administered s.c. (10 mg/kg) for three consecutive days to a group of 5 ICR derived immature female mice weighing approx. 13 g. The animals were sacrificed 24 h after the final dose and wet weight of the uterus was measured. A 50% or greater increase in the uterine weight relative to the vehicle control group indicates possible estrogen agonist activity.

**Q.** How did the IC50 (hER-α) turn out when C=C1[C@H](O)C[C@H]2[C@@H]3[C@H](CCCCCCCCCCC(=O)N(C)CCCC)Cc4cc(O)ccc4[C@H]3CC[C@]12C [Ex 1, 11-(3,16α-Dihydroxy-17-methylene-estra-1,3,5(10)-triene-7α-yl)-undecanoic acid n-butyl-methyl-amide] was run?
**A.** 3.5 nM

**Q.** What about the Ki (hER-α) of the same compound?
**A.** 1 nM

**Q.** And the “in vivo antagonism (reduction in the estradiol-induced increase in uterine weight)” value [1]?
**A.** 61

**Q.** What about the “In vivo agonism (increase in uterine weight relative to vehicle control)” value [2] of the same compound?
**A.** 1%

**Q.** How did the IC50 (hER-α) turn out when CCCCN(C)C(=O)CCCCCCCCCC[C@@H]1Cc2cc(O)ccc2C2CC[C@@]3(C)C(C[C@@H](O)C34CC4)C21 (stereo partly drawn) [Ex 4, 11-(17-(1,2-Ethylene)-3,16α-dihydroxy-estra-1,3,5(10)-triene-7α-yl)-undecanoic acid n-butyl-methyl-amide] was run?
**A.** 2.48 nM

**Q.** And the Ki (hER-α)?
**A.** 0.71 nM

**Q.** And the “in vivo antagonism (reduction in the estradiol-induced increase in uterine weight)” value [1]?
**A.** 58

**Q.** What about the “In vivo agonism (increase in uterine weight relative to vehicle control)” value [2] of the same compound?
**A.** 4%

**Q.** For C=C1[C@H](O)CC2C3C(CC[C@]12C)c1ccc(O)cc1C[C@H]3CCCCCCCCC[S+]([O-])CCCC(F)(F)C(F)(F)F (some centres unmarked) [Ex 5], which IC50 (hER-α) is on record?
**A.** 1.19 nM

**Q.** And the Ki (hER-α)?
**A.** 0.34 nM

**Q.** What about the “in vivo antagonism (reduction in the estradiol-induced increase in uterine weight)” value [1] of the same compound?
**A.** 55

**Q.** What about the “In vivo agonism (increase in uterine weight relative to vehicle control)” value [2] of the same compound?
**A.** 8%

**Q.** Which IC50 (hER-α) does the source give for CO[C@H]1c2cc(O)ccc2C2CC[C@@]3(C)C(C[C@@H](O)C34CC4)C2[C@@H]1CCCCCCCCC[S+]([O-])CCCC(F)(F)C(F)(F)F (some centres unmarked) [Ex 8] here?
**A.** 10.2 nM

**Q.** And the Ki (hER-α)?
**A.** 2.91 nM

**Q.** Which IC50 (hER-α) does the source give for C[C@]12CCC3c4ccc(O)cc4C(=O)[C@@H](CCCCCCCCC[S+]([O-])CCCC(F)(F)C(F)(F)F)C3C1C[C@@H](O)C21CC1 (stereo partly drawn) [Ex 10, 17-(1,2-Ethylene)-3,16α-dihydroxy-6-keto-7α-[9-[(4,4,5,5,5-pentafluoro-n-pentyl)sulfinyl]nonyl]-estra-1,3,5(10)-triene] here?
**A.** 4.75 nM

**Q.** And the Ki (hER-α)?
**A.** 1.36 nM

**Q.** How did the IC50 (hER-α) turn out when C[C@]12CCC3c4ccc(O)cc4[C@@H](O)[C@@H](CCCCCCCCC[S+]([O-])CCCC(F)(F)C(F)(F)F)C3C1C[C@@H](O)C21CC1 (stereo partly drawn) [Ex 12, 17-(1,2-Ethylene)-3,6α,16α-trihydroxy-7α-[9-[(4,4,5,5,5-pentafluoro-n-pentyl)sulfinyl]nonyl]-1,3,5(10)-triene] was run?
**A.** 1.59 nM

**Q.** What about the Ki (hER-α) of the same compound?
**A.** 0.45 nM

**Q.** Which results are given for CO[C@@H]1c2cc(O)ccc2C2CC[C@@]3(C)C(C[C@@H](O)C34CC4)C2[C@@H]1CCCCCCCCC[S+]([O-])CCCC(F)(F)C(F)(F)F (stereo partly drawn) [Ex 14, 17-(1,2-Ethylene)-3,16α-dihydroxy-6α-methoxy-7α-[9-[(4,4,5,5,5-pentafluoro-n-pentyl)sulfinyl]nonyl]-estra-1,3,5(10)-triene]?
**A.** IC50 (hER-α): > 10 nM; Ki (hER-α): > 10 nM

**Q.** How did the IC50 (hER-α) turn out when C[C@]12CCC3c4ccc(O)cc4[C@H](F)[C@@H](CCCCCCCCC[S+]([O-])CCCC(F)(F)C(F)(F)F)C3C1C[C@@H](O)C21CC1 (stereo partly drawn) [Ex 16, 17-(1,2-Ethylene)-6β-fluoro-3,16α-dihydroxy-7α-[9-[(4,4,5,5,5-pentafluoro-n-pentyl)sulfinyl]nonyl]-estra-1,3,5(10)-triene] was run?
**A.** 1.04 nM

**Q.** And the Ki (hER-α)?
**A.** 0.3 nM

**Q.** Which results are given for C[C@]12CCC3c4ccc(O)cc4C[C@@H](CCCCCCCCC[S+]([O-])CCCC(F)(F)C(F)(F)F)C3C1C[C@@H](O)C21CC1 (stereo partly drawn) [Ex 18, 17-(1,2-Ethylene)-3,16α-dihydroxy-7α-[9-[(4,4,5,5,5-pentafluoro-n-pentyl)sulfinyl]nonyl]-estra-1,3,5(10)-triene]?
**A.** IC50 (hER-α): 0.92 nM; Ki (hER-α): 0.26 nM

**Q.** Which “in vivo antagonism (reduction in the estradiol-induced increase in uterine weight)” value [1] does the source give for CCCCN(C)C(=O)CCCCCCCCCC[C@@H]1Cc2cc(O)ccc2[C@H]2CC[C@]3(C)[C@@H](O)CC[C@H]3[C@H]12 [ICI 164, 384, 11-(3,17β-Dihydroxy-estra-1,3,5(10)-triene-7α-yl)-undecanoic acid n-butyl-methyl-amide, reference compound] here?
**A.** 66

**Q.** With CC12CCC3c4ccc(O)cc4CC(CCCCCCCCC[S+]([O-])CCCC(F)(F)C(F)(F)F)C3C1CCC2O (centres unmarked) [ICI 182, 780, reference compound] as the compound, how does the “in vivo antagonism (reduction in the estradiol-induced increase in uterine weight)” value [1] read?
**A.** 66
